Results from patent publication US10703748B2, “Diazanaphthalen-3-yl carboxamides and preparation and use thereof” (Samumed, LLC, priority 2017, dated 2020).

Experiments:
[1] = system: secreted cytokines TNFα, IL-6 and KC-GRO; test: Secreted cytokines in Lipopolysaccharide-stimulated BV-2 cells (Table 9 does not say which cytokine); assay type: cell-based, mouse; conditions: Mus musculus, BV-2, 5 h; read-out: EC50
Method: BV-2 cells (mouse microglial cells) were cultured in 1:1 DMEM medium supplemented with 10% FBS, and 1% penicillin/streptomycin.
BV-2 cells are plated at 35,000 cells/well in a volume of 100 μl for at least 4 hours before compounds are added. […] Compounds were added to cells overnight. […] Supernatant is removed and saved for further cytokine detection. The original plates with seeded cells were tested for cytotoxicity by measure of adenosine triphosphate (ATP) release by adding CellTiter-Glo® diluted 1:4 in distilled water (G7573, Promega) and transferring lysed cells to a completely black 96-well plate to be read with the Cytation3. Supernatant was then diluted 1:2 with a diluent from V-PLEX cytokine Kit and directly tested for the secreted cytokines TNFα, IL-6 and KC-GRO using electrochemiluminescence (Meso Scale Discovery). The standard curve for each cytokine was used to convert the electrochemiluminescent signal into pg of protein per mL.

DYRK1A kinase = DYRK1A kinase (Homo sapiens, UniProt Q13627); test: DYRK1A kinase activity (Ser/Thr 18 peptide Z-lyte FRET assay); assay type: biochemical; conditions: recombinant DYRK1A, 30 μM ATP, one hour at room temperature;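 note: kinase activity read as coumarin/fluorescein emission ratio after development step, with unphosphorylated and phosphorylated peptide forms setting 0% and 100% controls, values from dose-response curves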
[2] = system: Wnt-responsive Sp5-Luc reporter in SW480 colon carcinoma cells; test: Screening assay for Wnt activity (Sp5-Luc reporter gene assay); conditions: Homo sapiens; for EC50: SW480; for inhibition at 10 µM: SW480, read-out: percent inhibition at 10 μM
[3] = system: α-smooth muscle actin (aSMA) positive LL29 cells; test: Inhibition of the fibrotic process: αSMA staining in TGF-β1 treated LL29 fibroblasts from IPF patients; conditions: Homo sapiens, Fibroblast; for EC50: 96 h; for inhibition at 10 µM: read-out: percentage in parentheses after EC50 >10
[4] = system: SW480 colon carcinoma cells; test: Cell viability assay (CellTiter-Glo); conditions: Homo sapiens; for EC50: SW480, 96 h; for inhibition at 10 µM: SW480, read-out: percent inhibition at 10 μM
GSK3β kinase = GSK3β kinase (Homo sapiens, UniProt P49841); test: GSK3β kinase activity (Ser/Thr 09 peptide Z-lyte FRET assay); assay type: biochemical; conditions: recombinant kinase, 46 μM ATP, one hour at room temperature; read-out: EC50
Sequence of GSK3β kinase (P49841 whole entry): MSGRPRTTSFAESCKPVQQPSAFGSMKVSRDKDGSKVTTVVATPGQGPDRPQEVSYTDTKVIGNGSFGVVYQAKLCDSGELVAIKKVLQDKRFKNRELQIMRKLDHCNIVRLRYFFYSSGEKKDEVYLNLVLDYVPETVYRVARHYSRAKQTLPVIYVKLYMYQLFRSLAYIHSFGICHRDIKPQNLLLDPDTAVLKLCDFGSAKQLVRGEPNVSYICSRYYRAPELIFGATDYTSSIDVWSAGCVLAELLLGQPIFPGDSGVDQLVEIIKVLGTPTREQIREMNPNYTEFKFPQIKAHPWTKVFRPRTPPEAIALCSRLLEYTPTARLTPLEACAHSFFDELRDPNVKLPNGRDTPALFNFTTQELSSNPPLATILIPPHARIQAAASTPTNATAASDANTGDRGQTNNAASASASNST

IL-6 = IL-6 inhibition in LPS-stimulated human peripheral blood mononuclear cells (HTRF); conditions: Homo sapiens, PBMC; for EC50: 22 h; for inhibition at 10 µM: read-out: percentage in parentheses after EC50 >10

Row | EC50 [1] [nM] | EC50 (DYRK1A kinase) [nM] | EC50 [2] [nM] | EC50 [4] [nM] | EC50 (GSK3β kinase) [nM] | EC50 (IL-6) [nM] | SMILES | EC50 [3] [nM] | inhibition at 10 µM [4] [%] | inhibition at 10 µM [2] [%] | inhibition at 10 µM [3] [%] | inhibition at 10 µM (IL-6) [%]
1 | 1700 | 19 | 3420 | 1510 | 665 | 7960 | CN(C)C1CCN(c2cc(C(=O)Nc3cc4nc(-c5cn(C)nn5)ccc4cn3)ccn2)CC1 [Compound 376, 2-(4-(Dimethylamino)piperidin-1-yl)-N-(2-(1-methyl-1H-1,2,3-triazol-4-yl)-1,6-naphthyridin-7-yl)isonicotinamide] | 3480 |  |  |  | 
2 | 734 | 11 | 1600 | 1340 | 359 | 2080 | CN1CCCN(c2cc(C(=O)Nc3cc4nc(-c5cn(C)nn5)ccc4cn3)ccn2)CC1 [Compound 379, 2-(4-Methyl-1,4-diazepan-1-yl)-N-(2-(1-methyl-1H-1,2,3-triazol-4-yl)-1,6-naphthyridin-7-yl)isonicotinamide] | 2140 |  |  |  | 
3 | 3300 | 31 | 386 | > 10000 | 49 | 5760 | CC(C)OCCC(=O)Nc1cc2nc(-c3cncn3C)ccc2cn1 [Compound 416, 3-Isopropoxy-N-(2-(1-methyl-1H-imidazol-5-yl)-1,6-naphthyridin-7-yl) propanamide] | 355 | 52.1 |  |  | 
4 | ≥ 10000 | 22 | > 10000 | > 10000 | 644 | > 10000 | CC(F)(F)CN1CCC(C(=O)Nc2cc3nc(-c4cnco4)ccc3cn2)CC1 [Compound 540, 1-(2,2-Difluoropropyl)-N-(2-(oxazol-5-yl)-1,6-naphthyridin-7-yl)piperidine-4-carboxamide] | > 10000 | 5.3 | 11.8 | 50 | 3.9
5 | 449 | 29 | > 10000 | > 10000 | > 10000 | > 10000 | O=C(Nc1cc2nc(-c3cnco3)ccc2cn1)c1ccncc1 [Compound 592, N-(2-(Oxazol-5-yl)-1,6-naphthyridin-7-yl)isonicotinamide] | 9 | 11.7 | 5 |  | 25.3
6 | 8800 | 3 | 750 | 694 | 2930 | 3080 | O=C(Nc1cc2nc(-c3cncs3)ccc2cn1)c1ccc(OC2CCNCC2)cc1 [Compound 624, 4-(Piperidin-4-yloxy)-N-(2-(thiazol-5-yl)-1,6-naphthyridin-7-yl)benzamide] | 491 |  |  |  | 
7 | 130 | 4 | 964 | > 10000 | 8260 | > 10000 | O=C(Nc1cc2nc(-c3cncs3)ccc2cn1)c1ccncc1 [Compound 625, N-(2-(Thiazol-5-yl)-1,6-naphthyridin-7-yl)isonicotinamide] | 3010 | 47.8 |  |  | 6.5
8 | 433 | 8 | 977 | 1680 | 2560 | > 10000 | Cc1ncc(-c2ccc3cnc(NC(=O)c4ccncc4)cc3n2)s1 [Compound 641, N-(2-(2-Methylthiazol-5-yl)-1,6-naphthyridin-7-yl)isonicotinamide] | 347 |  |  |  | 16.4
9 | 1300 | 6 | 869 | 1030 | 3060 | > 10000 | Cc1ncc(-c2ccc3cnc(NC(=O)c4cccnc4)cc3n2)s1 [Compound 642, N-(2-(2-Methylthiazol-5-yl)-1,6-naphthyridin-7-yl)nicotinamide] | 988 |  |  |  | 22.4
10 | ≥ 10000 | 10 | 688 | 803 | 8560 | 9220 | Cc1ncc(-c2ccc3cnc(NC(=O)c4ccnc(N5CCN(C)CC5)c4)cc3n2)s1 [Compound 643, 2-(4-Methylpiperazin-1-yl)-N-(2-(2-methylthiazol-5-yl)-1,6-naphthyridin-7-yl)isonicotinamide] | 1430 |  |  |  | 
11 | 104 | 2 | 289 | 272 | 4680 | 1590 | Nc1cncc(-c2ccc3cnc(NC(=O)c4ccc(OC5CCNCC5)cc4)cc3n2)c1 [Compound 804, N-(2-(5-Aminopyridin-3-yl)-1,6-naphthyridin-7-yl)-4-(piperidin-4-yloxy)benzamide] | 482 |  |  |  | 
12 | 265 | 7 | 484 | 860 | > 10000 | 4200 | CN1CCN(c2cc(C(=O)Nc3cc4nc(-c5ccc(N)nc5)ccc4cn3)ccn2)CC1 [Compound 807, N-(2-(6-Aminopyridin-3-yl)-1,6-naphthyridin-7-yl)-2-(4-methylpiperazin-1-yl)isonicotinamide] | 1410 |  |  |  | 
13 | 306 | 25 | > 10000 | > 10000 | 360 | 3420 | O=C(Nc1cc2nc(-c3cncc(NCC4(F)CNC4)n3)ccc2cn1)C1CC1 [Compound 871, N-(2-(6-(((3-Fluoroazetidin-3-yl)methyl)amino)pyrazin-2-yl)-1,6-naphthyridin-7-yl)cyclopropanecarboxamide] | 8050 | 33.5 | 24.7 |  | 
14 | 2700 | 16 | > 10000 | > 10000 | 9920 | > 10000 | O=C(Nc1cc2nc(-c3cncc(NC4CCNCC4)n3)ccc2cn1)C1CCOCC1 [Compound 877, N-(2-(6-(Piperidin-4-ylamino)pyrazin-2-yl)-1,6-naphthyridin-7-yl)tetrahydro-2H-pyran-4-carboxamide] | > 10000 | 11.7 | 0 | 23.6 | 6.8
15 | 266 | 5 | 121 | 109 | > 10000 | 1680 | CN1CCC(n2cc(C(=O)Nc3cc4nc(-c5cncc6[nH]ccc56)ccc4cn3)cn2)CC1 [Compound 896, N-(2-(1H-Pyrrolo[2,3-c]pyridin-4-yl)-1,6-naphthyridin-7-yl)-1-(1-methylpiperidin-4-yl)-1H-pyrazole-4-carboxamide] | 335 |  |  |  | 
16 | 780 | 8 | 573 | 8470 | 661 | 3710 | CN1CCN(c2cccc(C(=O)Nc3ncc4ccc(-c5cnn(C)c5)cc4n3)c2)CC1 [Compound 1047, N-(7-(1-Methyl-1H-pyrazol-4-yl)quinazolin-2-yl)-3-(4-methylpiperazin-1-yl) benzamide] | 1930 |  |  |  | 
17 | 1200 | 8 | 468 | 719 | 3650 | 3930 | CN1CCN(c2cc(C(=O)Nc3ncc4ccc(-c5cnn(C)c5)cc4n3)ccn2)CC1 [Compound 1054, N-(7-(1-Methyl-1H-pyrazol-4-yl)quinazolin-2-yl)-2-(4-methylpiperazin-1-yl) isonicotinamide] | 2340 |  |  |  | 
18 | 286 | 9 | 2150 | 9430 | 3130 | > 10000 | CN1CCN(c2ccc(C(=O)Nc3ncc4ccc(-c5cnn(C)c5)cc4n3)cn2)CC1 [Compound 1058, N-(7-(1-Methyl-1H-pyrazol-4-yl)quinazolin-2-yl)-6-(4-methylpiperazin-1-yl)nicotinamide] | > 10000 |  |  | 8.8 | 3
19 | 280 | 27 | 3570 | 6960 | > 10000 | > 10000 | Cn1cc(-c2ccc3cnc(NC(=O)c4ccnc(OC5CCNCC5)c4)nc3c2)cn1 [Compound 1060, N-(7-(1-Methyl-1H-pyrazol-4-yl)quinazolin-2-yl)-2-(piperidin-4-yloxy)isonicotinamide] | > 10000 |  |  | 28.6 | 4.9
20 | 1800 | 10 | 1530 | 3470 | > 10000 | > 10000 | CN(C)CCNc1cc(C(=O)Nc2ncc3ccc(-c4cnn(C)c4)cc3n2)ccn1 [Compound 1071, 2-((2-(Dimethylamino)ethyl)amino)-N-(7-(1-methyl-1H-pyrazol-4-yl)quinazolin-2-yl)isonicotinamide] | 6840 |  |  |  | 11.8
21 | 203 | 16 | 1080 | 3400 | 4140 | 9200 | CN(C)Cc1ccc(C(=O)Nc2ncc3ccc(-c4cnn(C)c4)cc3n2)cc1 [Compound 1077, 4-((Dimethylamino)methyl)-N-(7-(1-methyl-1H-pyrazol-4-yl)quinazolin-2-yl)benzamide] | 3920 |  |  |  | 
